Experimental data as given in patent US12403192B2, “Nanoemulsion compositions for preventing, suppressing or eliminating allergic and inflammatory disease” (priority 2014, dated 2025).

Tested on: virus
Test: Virus inactivation by BCTP components
Details: concentrations equivalent to 11% BCTP
From the text: Individual components of nanoemulsions (e.g. in an immunogenic composition of the present invention) can function both to inactivate a pathogen as well as to contribute to the non-toxicity of the emulsions. […] Adding the oil phase to the detergent and solvent markedly reduces the toxicity of these agents in tissue culture at the same concentrations. […] Furthermore, when all the components of BCTP are combined in one composition but are not in a nanoemulsion structure, the mixture is not as effective at inactivating a pathogen as when the components are in a nanoemulsion structure.

Substance: TRITON-X100
- ability to inactivate a virus: less ability
